Measurements reported in patent publication US20080318943A1, “Compounds and Uses Thereof - 848” (ASTRAZENECA AB, priority 2007, published 2008).

Columns and labels:
[1] = biological target: T1, GABAA2 receptors (α2, β3, γ2 receptor subunits transfected into Sf9 cells) (Homo sapiens, UniProt P18507+P47869); assay: GABAA2 Binding Method ([3H]-Flunitrazepam displacement); conditions: [3H]-Flunitrazepam ~2 nM, α2β3γ2 Sf9 membranes, 1 hr at 4° C.
T1 construct: host or cells: Sf9 cells (membranes)
Description: In some embodiments, the binding test is directed to a subtype of GABAA receptors, such as GABAA1 receptors (i.e., those containing the α1 subunit), GABAA2 receptors (i.e., those containing the α2 subunit), GABAA3 receptors (i.e., those containing the α3 subunit) and GABAA5 receptors (i.e., those containing the α5 subunit).
[^3H]-Flunitrazepam (Cat #NET567): Prepare 10× stock=20 nM, [F} in assay=˜2 nM
1. […] Add 5 ul of 30 uM flumazenil to wells 12 D-E for 50% control wells.
5. Add 25 μl [^3H]-Flunitrazepam (Automation Program 6). Incubate for 1 hr at 4° C.
6. Collect membranes on a cell harvester onto GF/B filter plates (pre-wet with dH2O and wash 5×400 μl/well, with cold assay buffer. (First 3 washes are considered hot; last two are cold.)
Data is analyzed by calculating percent of control, IC50, and Ki in an XLfit template. The following formula is used in the templates: […]

[2] = biological target: T2, GABAA receptor α1β2γ2 (Homo sapiens, UniProt P14867+P18507); assay: Two-electrode voltage-clamp potentiation of GABA EC10 current in Xenopus oocytes, GABAA1; type: cell-based; conditions: percentage potentiation of GABA EC10 current divided by that of diazepam
T2 construct: expressed in transfected cells; host or cells: Xenopus laevis oocytes injected with cRNA
T2 sequence (P14867 28-456): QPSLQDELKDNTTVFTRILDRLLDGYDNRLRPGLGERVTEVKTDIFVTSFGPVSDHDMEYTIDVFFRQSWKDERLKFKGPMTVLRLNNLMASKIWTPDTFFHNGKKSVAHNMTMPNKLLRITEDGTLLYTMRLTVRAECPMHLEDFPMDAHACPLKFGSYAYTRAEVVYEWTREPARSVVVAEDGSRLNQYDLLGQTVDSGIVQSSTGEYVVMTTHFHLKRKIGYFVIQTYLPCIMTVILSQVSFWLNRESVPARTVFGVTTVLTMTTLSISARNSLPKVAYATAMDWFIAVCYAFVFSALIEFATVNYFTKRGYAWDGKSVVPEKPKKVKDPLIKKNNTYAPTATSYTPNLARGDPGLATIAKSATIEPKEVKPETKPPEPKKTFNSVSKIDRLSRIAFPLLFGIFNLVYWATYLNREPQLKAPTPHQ
T2 sequence (P47870 25-512 partner limits assumed): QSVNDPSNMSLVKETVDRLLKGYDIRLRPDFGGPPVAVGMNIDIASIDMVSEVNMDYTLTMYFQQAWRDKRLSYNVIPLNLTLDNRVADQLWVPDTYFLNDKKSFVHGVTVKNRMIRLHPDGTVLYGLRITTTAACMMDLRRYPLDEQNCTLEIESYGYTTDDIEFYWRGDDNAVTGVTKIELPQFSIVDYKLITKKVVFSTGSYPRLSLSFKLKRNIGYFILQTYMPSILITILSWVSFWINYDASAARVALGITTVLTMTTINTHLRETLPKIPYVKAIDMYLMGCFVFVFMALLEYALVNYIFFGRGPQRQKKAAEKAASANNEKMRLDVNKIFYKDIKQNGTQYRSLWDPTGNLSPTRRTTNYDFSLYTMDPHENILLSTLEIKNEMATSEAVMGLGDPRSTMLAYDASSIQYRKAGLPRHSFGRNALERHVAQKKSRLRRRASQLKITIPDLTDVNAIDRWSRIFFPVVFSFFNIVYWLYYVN
T2 sequence (P18507 40-475): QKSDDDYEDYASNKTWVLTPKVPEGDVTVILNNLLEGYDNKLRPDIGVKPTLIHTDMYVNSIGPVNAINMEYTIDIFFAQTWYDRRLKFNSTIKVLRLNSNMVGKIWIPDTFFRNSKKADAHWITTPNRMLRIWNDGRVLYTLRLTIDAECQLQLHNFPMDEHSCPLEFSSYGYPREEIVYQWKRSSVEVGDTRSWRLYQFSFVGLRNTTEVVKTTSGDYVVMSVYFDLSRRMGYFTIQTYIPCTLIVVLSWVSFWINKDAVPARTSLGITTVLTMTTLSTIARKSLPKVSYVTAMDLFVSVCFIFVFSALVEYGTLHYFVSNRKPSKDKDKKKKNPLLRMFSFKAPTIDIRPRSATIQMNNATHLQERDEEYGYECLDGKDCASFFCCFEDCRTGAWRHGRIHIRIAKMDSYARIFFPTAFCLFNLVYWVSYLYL
Description: GABAA receptors were heterologously expressed in Xenopus oocytes by injecting cRNA corresponding to human α1, α2, α3, α5, β2, P3 and γ2 subunits of the GABAA receptor genes. The specific subunit combinations (subtypes) were as follows: α1β2γ2, α2β3γ2, α3β3γ2, and α5β3γ2. The EC10 of GABA is approximated for each cell. Stability of GABA-mediated (EC10) current is established. Modulatory effect of test compound is determined and compared across subtypes. […] Thus, the assay can characterize modulatory effects and determine subtype selectivity of test compounds on major subtypes of GABAA receptors.
Xenopus laevis frogs (Xenopus I, Kalamazoo, Mich.) were anesthetized using 0.15% tricaine. Surgically removed ovarian lobes were teased out in OR2 solution (82 NaCl, 2.5 KCl, 5 HEPES, 1.5 NaH2PO4, 1 MgCl2, 0.1 EDTA, in mM, pH 7.4). The oocytes were defolliculated by incubation in 25 mL OR2 containing 0.2% collagenase 1A (SIGMA) two times for about 60 minutes on a platform shaker and stored in Leibovitz's L-15 medium. Oocytes were injected the following day in 0.5× Leibovitz's L-15 medium containing […] gentamycin, 10 units/ml penicillin, and […] streptomycin.
Capped cRNAs from the linearized vectors containing human α1, β2 and γ2 subunits of the GABAA receptor genes were mixed in ratio of […]. Oocytes were injected with 25-50 nL of mixed RNA with an appx molar ratio for α1, β2, and γ2 as 1:1:10. Oocyte recordings were done 2-10 days after injection. The same methods apply to subtypes derived from α2β3γ2, α3β3γ2, and α5β3γ2, except for 1:1:1 ratio was used for α, β, and γ subunits.
All measurements were done in a medium containing ND-96 (96 NaCl, 2 KCl, 1.8 CaCl2.2H2O, 1 MgCl2.6H2O, 5 HEPES, in mM, pH 7.5). Two-electrode voltage-clamp recording was carried out using OpusXpress amplifier (Axon Instruments, Foster City, Calif.), which allows simultaneous recording from 8 oocytes. Oocytes were impaled with two electrodes of 1-2 MΩ tip resistance when filled with 3M KCl. Recordings were begun when membrane potential became stable at potentials negative to −50-−60 mV. Membrane potential was held at −60 mV. […] The concentration of GABA corresponded to the EC10 value calculated for each oocyte. The modulator pulses started 30 s before the GABA pulse so as to allow preincubation with the modulator. A set of 3 pulses with just GABA without modulator was given prior to the modulator-containing pulses to define the baseline GABA response. Two oocytes per each experiment were dedicated to observe the effect of diazepam on GABA response to ensure the presence of γ2 subunit in the GABAA pentameric complex, which imparts diazepam sensitivity to the complex.
Current amplitude (i) was measured from baseline to peak using Clampfit (Axon Inst., Foster City, Calif.). Potentiation was calculated as percent change from the baseline GABA current flux 100×(imod/icontrol)−1) where imod=current mediated by modulator+GABA and icontrol=current mediated by GABA alone. […] Similarly, a value of −50% potentiation means the presence of modulator caused a 50% decrease in the control current. Various other data shown here were fitted and plotted using GraphPad Prism (GraphPad Software, Inc. San Diego, Calif.). The percentage potentiation was converted to relative potentiation by dividing it with percentage potentiation value obtained from the same assay with diazepam as a control.

T1 sequence (P47869 29-451): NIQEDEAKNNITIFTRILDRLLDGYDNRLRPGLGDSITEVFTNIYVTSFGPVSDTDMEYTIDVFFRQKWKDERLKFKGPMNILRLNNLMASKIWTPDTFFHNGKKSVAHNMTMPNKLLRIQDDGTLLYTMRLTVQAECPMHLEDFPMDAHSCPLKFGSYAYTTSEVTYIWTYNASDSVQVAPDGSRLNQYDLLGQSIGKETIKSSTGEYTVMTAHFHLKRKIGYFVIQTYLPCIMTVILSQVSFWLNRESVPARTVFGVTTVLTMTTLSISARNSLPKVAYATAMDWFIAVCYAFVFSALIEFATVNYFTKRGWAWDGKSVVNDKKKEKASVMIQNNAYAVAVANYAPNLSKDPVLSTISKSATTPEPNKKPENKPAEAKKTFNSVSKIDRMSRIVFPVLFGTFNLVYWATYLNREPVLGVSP
T1 sequence (P28472 26-473 partner): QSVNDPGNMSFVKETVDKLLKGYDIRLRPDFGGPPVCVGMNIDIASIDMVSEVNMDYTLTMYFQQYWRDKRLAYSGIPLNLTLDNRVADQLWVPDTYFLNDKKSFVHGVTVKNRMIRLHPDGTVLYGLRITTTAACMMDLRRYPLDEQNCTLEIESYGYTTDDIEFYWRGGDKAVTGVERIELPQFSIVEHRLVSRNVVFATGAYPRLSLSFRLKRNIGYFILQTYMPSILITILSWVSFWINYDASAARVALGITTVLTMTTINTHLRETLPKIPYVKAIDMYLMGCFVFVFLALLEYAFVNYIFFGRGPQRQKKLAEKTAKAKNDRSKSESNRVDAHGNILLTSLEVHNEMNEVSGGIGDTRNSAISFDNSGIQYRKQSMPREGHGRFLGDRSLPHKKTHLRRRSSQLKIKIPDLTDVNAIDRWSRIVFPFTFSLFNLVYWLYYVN
T1 sequence (P18507 40-475): as the sequence (P18507 40-475) above

SMILES | Ki [1] | Relative Potentiation for GABAA1 [2]
COc1ccncc1-c1cccc2c(N)c3c(nc12)CN(Cc1ccc2c(c1)OCO2)C3=O [9-amino-2-(benzo[d][1,3]dioxol-5-ylmethyl)-5-(4-methoxypyridin-3-yl)-2,3-dihydro-1H-pyrrolo[3,4-b]quinolin-1-one] | 2.19 nM | 0.28
CCCCN1Cc2nc3c(-c4c(F)cccc4OC)cccc3c(N)c2C1=O [9-amino-2-butyl-5-(2-fluoro-6-methoxyphenyl)-2,3-dihydro-1H-pyrrolo[3,4-b]quinolin-1-one] | 4.62 nM | 0.25
CCCCN1Cc2nc3c(-c4cc(C)ccc4OC)cccc3c(N)c2C1=O [9-amino-2-butyl-5-(2-methoxy-5-methylphenyl)-2,3-dihydro-1H-pyrrolo[3,4-b]quinolin-1-one] | 21.3 nM | 0.56
CCCCN1Cc2nc3c(-c4cccnc4OC)cccc3c(N)c2C1=O [9-amino-2-butyl-5-(2-methoxypyridin-3-yl)-2,3-dihydro-1H-pyrrolo[3,4-b]quinolin-1-one] | 19.7 nM | 0.5
Nc1c2c(nc3c(-c4cc(Cl)ccc4Cl)cccc13)CN(C1CCC1)C2=O [9-amino-2-cyclobutyl-5-(2,5-dichlorophenyl)-2,3-dihydro-1H-pyrrolo[3,4-b]quinolin-1-one] | 3.15 nM | 0.16
COc1ccc(C)cc1-c1cccc2c(N)c3c(nc12)CN(C1CCC1)C3=O [9-amino-2-cyclobutyl-5-(2-methoxy-5-methylphenyl)-2,3-dihydro-1H-pyrrolo[3,4-b]quinolin-1-one] | 4.07 nM | 0.19
Nc1c2c(nc3c(-c4ccccc4C(F)(F)F)cccc13)CN(C1CC1)C2=O [9-amino-2-cyclopropyl-5-(2-(trifluoromethyl)phenyl)-2,3-dihydro-1H-pyrrolo[3,4-b]quinolin-1-one] | 22.7 nM | 0.48
COc1ccc(C)cc1-c1cccc2c(N)c3c(nc12)CN(C1CC1)C3=O [9-amino-2-cyclopropyl-5-(2-methoxy-5-methylphenyl)-2,3-dihydro-1H-pyrrolo[3,4-b]quinolin-1-one] | 4.76 nM | 0.28
COc1ccc(-c2cccc3c(N)c4c(nc23)CN(C2CC2)C4=O)c(C(F)(F)F)c1 [9-amino-2-cyclopropyl-5-(4-methoxy-2-(trifluoromethyl)phenyl)-2,3-dihydro-1H-pyrrolo[3,4-b]quinolin-1-one] | 31.9 nM | 0.5
COc1ccncc1-c1cccc2c(N)c3c(nc12)CN(C1CC1)C3=O [9-amino-2-cyclopropyl-5-(4-methoxypyridin-3-yl)-2,3-dihydro-1H-pyrrolo[3,4-b]quinolin-1-one] | 8.1 nM | 0.21
COc1ccc(C)cc1-c1c(F)ccc2c(N)c3c(nc12)CN(C1CC1)C3=O [9-amino-2-cyclopropyl-6-fluoro-5-(2-methoxy-5-methylphenyl)-2,3-dihydro-1H-pyrrolo[3,4-b]quinolin-1-one] | 7.65 nM | 0.23
CCN1Cc2nc3c(-c4cc(C)ccc4OC)cccc3c(N)c2C1=O [9-amino-2-ethyl-5-(2-methoxy-5-methylphenyl)-2,3-dihydro-1H-pyrrolo[3,4-b]quinolin-1-one] | 25.6 nM | 0.2
CCCN1Cc2nc3c(-c4ccc(OC)c(OC)c4OC)cccc3c(N)c2C1=O [9-amino-2-propyl-5-(2,3,4-trimethoxyphenyl)-2,3-dihydro-1H-pyrrolo[3,4-b]quinolin-1-one] | 49.8 nM | 0.55
CCCN1Cc2nc3c(-c4ccccc4C(F)(F)F)cccc3c(N)c2C1=O [9-amino-2-propyl-5-(2-(trifluoromethyl)phenyl)-2,3-dihydro-1H-pyrrolo[3,4-b]quinolin-1-one] | 16.6 nM | 0.48
CCCN1Cc2nc3c(-c4ccccc4C)cccc3c(N)c2C1=O [9-amino-2-propyl-5-(2-methylphenyl)-2,3-dihydro-1H-pyrrolo[3,4-b]quinolin-1-one] | 5.53 nM | 0.35
CCCN1Cc2nc3c(-c4cc(OC)c(OC)c(OC)c4)cccc3c(N)c2C1=O [9-amino-2-propyl-5-(3,4,5-trimethoxyphenyl)-2,3-dihydro-1H-pyrrolo[3,4-b]quinolin-1-one] | 89.8 nM | 0.96
CCCN1Cc2nc3c(-c4cccc(OC)c4OC)cccc3c(N)c2C1=O [9-amino-5-(2,3-dimethoxyphenyl)-2-propyl-2,3-dihydro-1H-pyrrolo[3,4-b]quinolin-1-one] | 24.5 nM | 0.3

Next, values leading:

Ki [1] | Relative Potentiation for GABAA1 [2] | SMILES
80.7 nM | 0.37 | CCCN1Cc2nc3c(-c4ccc(C)cc4)cccc3c(N)c2C1=O [9-amino-2-propyl-5-(4-methylphenyl)-2,3-dihydro-1H-pyrrolo[3,4-b]quinolin-1-one]
24.6 nM | 0.43 | CCCN1Cc2nc3c(-c4ccncc4)cccc3c(N)c2C1=O [9-amino-2-propyl-5-(pyridin-4-yl)-2,3-dihydro-1H-pyrrolo[3,4-b]quinolin-1-one]
19.5 nM | 0.29 | CCCN1Cc2nc3c(-c4ccc5ncccc5c4)cccc3c(N)c2C1=O [9-amino-2-propyl-5-(quinolin-6-yl)-2,3-dihydro-1H-pyrrolo[3,4-b]quinolin-1-one]
30.8 nM | 0.19 | CCCN1Cc2nc3c(-c4ccsc4)cccc3c(N)c2C1=O [9-amino-2-propyl-5-(thiophen-3-yl)-2,3-dihydro-1H-pyrrolo[3,4-b]quinolin-1-one]
26.8 nM | 0.55 | CCCN1Cc2nc3c(-c4ccc5[nH]ccc5c4)cccc3c(N)c2C1=O [9-amino-5-(1H-indol-5-yl)-2-propyl-2,3-dihydro-1H-pyrrolo[3,4-b]quinolin-1-one]
14.9 nM | 0.39 | CCCN1Cc2nc3c(-c4ccc(F)cc4F)cccc3c(N)c2C1=O [9-amino-5-(2,4-difluorophenyl)-2-propyl-2,3-dihydro-1H-pyrrolo[3,4-b]quinolin-1-one]
32.1 nM | 0.25 | COc1ccc(CN2Cc3nc4c(-c5ccc(OC)cc5OC)cccc4c(N)c3C2=O)cc1 [9-amino-5-(2,4-dimethoxyphenyl)-2-(4-methoxybenzyl)-2,3-dihydro-1H-pyrrolo[3,4-b]quinolin-1-one]
13.9 nM | 0.39 | CCCN1Cc2nc3c(-c4ccc(OC)cc4OC)c(F)ccc3c(N)c2C1=O [9-amino-5-(2,4-dimethoxyphenyl)-6-fluoro-2-propyl-2,3-dihydro-1H-pyrrolo[3,4-b]quinolin-1-one]
